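Grown in 96-well plates, cells were treated for 48 hours with each compound at five concentrations. Insufficient inhibition: endpoint recorded as highest concentration tested. GI50: concentration for 50% inhibition of growth.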 Calls of active or inactive are those of the source. No stated cut-off is given here; in the data, active = GI50 up to about 1.1 µM and inactive = higher.
Columns and labels:
Experiment in all cases: NCI anticancer screen, dose series, 48 h
[1] = tested on: A498
[2] = tested on: OVCAR-8
[3] = tested on: NCI-H460
[4] = tested on: CAKI-1
[5] = tested on: IGROV-1
[6] = tested on: HOP-92
[7] = tested on: HCT-15
[8] = tested on: SK-MEL-5
[9] = tested on: SW-620
[10] = tested on: SNB-75
[11] = tested on: HOP-62
[12] = tested on: NCI/ADR-RES
[13] = tested on: SR
[14] = tested on: A549
[15] = tested on: CCRF-CEM
[16] = tested on: TK-10
[17] = tested on: RPMI-8226
[18] = tested on: SF-268
[19] = tested on: HCT-116
[20] = tested on: SK-MEL-28

Structure (SMILES)	GI50 [1]	GI50 [2]	GI50 [3]	GI50 [4]	GI50 [5]	GI50 [6]	GI50 [7] [µM]	GI50 [8]	GI50 [9]	GI50 [10]	GI50 [11]	GI50 [12]	GI50 [13]	GI50 [14]	GI50 [15]	GI50 [16]	GI50 [17]	GI50 [18]	GI50 [19]	GI50 [20]
CSc1nc2c(c(N3CCOCC3)n1)C(O)n1c(nc3ccccc31)S2 (stereo not drawn)	97.1 µM (inactive)	31.1 µM (inactive)	13.6 µM (inactive)	> 100 µM (inactive)	> 100 µM (inactive)	72.3 µM (inactive)	63	3.23 µM (inactive)	32.1 µM (inactive)	30.5 µM (inactive)	40.6 µM (inactive)	22.6 µM (inactive)	51.2 µM (inactive)	29.6 µM (inactive)	21.1 µM (inactive)	47.5 µM (inactive)	4.72 µM (inactive)	26.2 µM (inactive)	> 100 µM (inactive)	–
CC(C)(C)C1=CC(=C2C=Cc3cc(O)ccc3O2)C=C(C(C)(C)C)C1=O	1.5 µM (inactive)	1.7 µM (inactive)	1.34 µM (inactive)	1.62 µM (inactive)	1.59 µM (inactive)	1.67 µM (inactive)	1.79	1.58 µM (inactive)	1.38 µM (inactive)	1.73 µM (inactive)	1.92 µM (inactive)	1.95 µM (inactive)	0.731 µM (active)	1.5 µM (inactive)	0.745 µM (active)	1.7 µM (inactive)	0.782 µM (active)	1.81 µM (inactive)	1.17 µM (inactive)	1.73 µM (inactive)
COC(=O)C1OC(O[C@H]2CC[C@]3(C)[C@H]4CC=C5[C@@H]6CC(C)(C)CC[C@]6(C(=O)OC6OCC(O)C(O)C6OC6OC(C)C(OC7OCC(OC8OCC(O)C(O)C8O)C(O)C7O)C(O)C6O)[C@H](O)C[C@@]5(C)[C@]4(C)CC[C@H]3C2(C)C)C(O)C(O)C1O (stereo partly drawn)	2.03 µM (inactive)	5.27 µM (inactive)	16 µM (inactive)	2.87 µM (inactive)	4.57 µM (inactive)	1.91 µM (inactive)	10.6	3.4 µM (inactive)	5.14 µM (inactive)	3.44 µM (inactive)	5.33 µM (inactive)	6.41 µM (inactive)	3.05 µM (inactive)	2.93 µM (inactive)	17.3 µM (inactive)	9.51 µM (inactive)	5.5 µM (inactive)	4.72 µM (inactive)	2.19 µM (inactive)	2.08 µM (inactive)
CC1=NN=C(N)NC1=CC(Sc1ccc(Cl)cc1)c1c(O)ccc2ccccc12 (stereo not drawn)	18.7 µM (inactive)	16.7 µM (inactive)	17.4 µM (inactive)	23.7 µM (inactive)	13 µM (inactive)	20.3 µM (inactive)	16.3	8.07 µM (inactive)	24.8 µM (inactive)	18.6 µM (inactive)	20.2 µM (inactive)	20.2 µM (inactive)	17.4 µM (inactive)	28.9 µM (inactive)	4.73 µM (inactive)	26.5 µM (inactive)	13.5 µM (inactive)	11.3 µM (inactive)	18.9 µM (inactive)	14 µM (inactive)
CCOC(=O)NC1=C(N2CC2)C(=O)C(NC(=O)OCC)=C(N2CC2)C1=O [DIAZIQUONE]	3.56 µM (inactive)	3.73 µM (inactive)	0.188 µM (active)	1.08 µM (active)	5.33 µM (inactive)	5.51 µM (inactive)	7.69	3.72 µM (inactive)	4.97 µM (inactive)	4.73 µM (inactive)	0.741 µM (active)	3.48 µM (inactive)	0.339 µM (active)	–	1.37 µM (inactive)	31.6 µM (inactive)	3.99 µM (inactive)	2.81 µM (inactive)	3.53 µM (inactive)	13 µM (inactive)

Source: ChEMBL document CHEMBL1201862, “PubChem BioAssay data set” (2004)
